We go through 21 molecules from article PMC3827627 (ACS chemical biology, 2013).

One experiment has as its target PKA-RIα holoenzyme (Bos taurus, UniProt P00514). Format: biochemical. Conditions: for EC50: read-out: RIα EC50, LiReC assay, 6 nM PKA holoenzyme, 3 nM TR-IP20.
The target in another experiment is RIIβ-S112A holoenzyme (Rattus norvegicus, UniProt P12369, S112A). Type of experiment: biochemical. Conditions: LiReC assay; for EC50: read-out: RIIβ EC50, RIIβ-S112A holoenzyme, 6 nM PKA holoenzyme, 3 nM TR-IP20.

By EC50 is commonly meant the concentration at which the effect is half-maximal.

Sequence of PKA-RIα holoenzyme (P00514 92-380): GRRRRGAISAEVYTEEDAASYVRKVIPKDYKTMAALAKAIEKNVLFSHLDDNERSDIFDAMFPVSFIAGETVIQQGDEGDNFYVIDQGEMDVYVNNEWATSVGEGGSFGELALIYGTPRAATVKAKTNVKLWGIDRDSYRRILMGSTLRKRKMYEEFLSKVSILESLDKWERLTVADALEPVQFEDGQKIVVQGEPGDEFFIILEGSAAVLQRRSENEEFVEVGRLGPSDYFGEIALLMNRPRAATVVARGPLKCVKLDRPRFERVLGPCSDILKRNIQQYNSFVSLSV
Sequence of RIIβ-S112A holoenzyme (P12369 108-402 S112A): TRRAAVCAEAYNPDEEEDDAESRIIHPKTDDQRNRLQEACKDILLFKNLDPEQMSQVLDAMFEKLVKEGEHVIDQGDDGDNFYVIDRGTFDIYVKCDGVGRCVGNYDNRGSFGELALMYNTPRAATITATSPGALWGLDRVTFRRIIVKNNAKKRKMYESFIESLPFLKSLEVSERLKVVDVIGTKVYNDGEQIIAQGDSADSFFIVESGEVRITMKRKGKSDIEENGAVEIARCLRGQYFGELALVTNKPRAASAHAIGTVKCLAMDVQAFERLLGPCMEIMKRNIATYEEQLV

For 2-OMe cAMP, the EC50 at PKA-RIα holoenzyme turned out to be 5670 nM.

Turning to `O=C(Nc1ncnc2c1ncn2[C@@H]1O[C@@H]2COP(=O)(O)OC2C1O)c1ccccc1` (stereo in doubt) [6-Bnz cAMP], the 50% effective concentration (EC50) at PKA-RIα holoenzyme is 170 nM; on RIIβ-S112A holoenzyme, 35 nM.

In the case of `Nc1nc(Cl)nc2c1ncn2[C@@H]1O[C@@H]2COP(=O)(O)OC2[C@@H]1O` (stereo partly shown) [2-Cl cAMP], the EC50 came to 42 nM at PKA-RIα holoenzyme and 45 nM on RIIβ-S112A holoenzyme.

As for `O=[P@]1(S)OC[C@H]2O[C@@H](n3cnc4cc(Cl)c(Cl)cc43)[C@H](O)[C@@H]2O1` [5,6 DCl BIMPS], the EC50 on PKA-RIα holoenzyme came to 270 nM; at RIIβ-S112A holoenzyme, 129 nM.

Take `CCCC(=O)Nc1ncnc2c1ncn2[C@@H]1O[C@@H]2COP(=O)(O)O[C@H]2[C@H]1O` [6-MB cAMP]: the EC50 on PKA-RIα holoenzyme is 140 nM; on RIIβ-S112A holoenzyme, 39 nM. The “activation of RIIβ holoenzymes (in words)” value at RIIβ-S112A holoenzyme is given as “potent RIIβ activators”.

`CC(C)(C)NC(=O)Nc1ncnc2c1ncn2[C@@H]1O[C@@H]2COP(=O)(O)O[C@H]2[C@H]1O` [6-MBC cAMP]: the EC50 was found to be 289 nM at PKA-RIα holoenzyme and 59 nM on RIIβ-S112A holoenzyme.

In the case of `O=P1(O)OC[C@H]2O[C@@H](n3cnc4c(Nc5ccccc5)ncnc43)[C@@H](O)C2O1` (stereo partly shown) [6-Phe cAMP], the figures for the half-maximal effective concentration (EC50) at PKA-RIα holoenzyme and at RIIβ-S112A holoenzyme were 92 nM and 20 nM, respectively.

`NCCCCCCNc1nc2c(N)ncnc2n1[C@@H]1O[C@@H]2COP(=O)(O)O[C@H]2[C@H]1O` [8-AHA cAMP]: the EC50 on PKA-RIα holoenzyme amounted to 116 nM; on RIIβ-S112A holoenzyme, 197 nM.

`Nc1ncnc2c1nc(Br)n2[C@@H]1O[C@@H]2COP(=O)(O)O[C@H]2[C@H]1O` [8-Br cAMP]: the concentration for a half-maximal effect (EC50) at PKA-RIα holoenzyme came out at 81 nM; on RIIβ-S112A holoenzyme, 184 nM.

For the molecule `Nc1ncnc2c1nc(Sc1ccc(Cl)cc1)n2[C@@H]1O[C@@H]2COP(=O)(O)O[C@H]2[C@H]1O` [8-CPT cAMP], the EC50 on PKA-RIα holoenzyme worked out at 33 nM; on RIIβ-S112A holoenzyme it was 149 nM.

Regarding `Nc1ncnc2c1nc(Cl)n2[C@@H]1O[C@@H]2COP(=O)(O)O[C@H]2[C@H]1O` [8-Cl cAMP], the 50% effective concentration (EC50) on PKA-RIα holoenzyme came out at 58 nM; on RIIβ-S112A holoenzyme, 275 nM.

For `CCCCCCNc1nc2c(N)ncnc2n1[C@@H]1O[C@@H]2COP(=O)(O)OC2[C@@H]1O` (stereo partly shown) [8-HA cAMP], the EC50 at PKA-RIα holoenzyme came to 358 nM; at RIIβ-S112A holoenzyme, 1150 nM.

`CNc1nc2c(N)ncnc2n1[C@@H]1O[C@@H]2COP(=O)(O)O[C@H]2[C@H]1O` [8-MA cAMP]: the EC50 at PKA-RIα holoenzyme was determined as 102 nM; on RIIβ-S112A holoenzyme, 223 nM.

`Nc1ncnc2c1nc(N1CCCCC1)n2[C@@H]1O[C@@H]2COP(=O)(O)O[C@H]2[C@H]1O` [8-PIP cAMP]: the EC50 was 1020 nM on PKA-RIα holoenzyme and 3950 nM at RIIβ-S112A holoenzyme.

For the molecule `CCCN(CCC)c1ncnc2c1ncn2[C@@H]1O[C@@H]2COP(=O)(O)O[C@H]2[C@H]1O` [HE33], the “fold increase in EC50 relative to cAMP” value at PKA-RIα holoenzyme (RIα holoenzyme, HE33 vs cAMP) amounted to 10 fold. In addition, the figures for the EC50 at PKA-RIα holoenzyme and at RIIβ-S112A holoenzyme were 414 nM and 45 nM, respectively.

In the case of `Nc1ncnc2c1ncn2[C@@H]1O[C@@H]2COP(O)(=S)O[C@H]2[C@H]1O` (stereo partly shown) [Sp cAMP], the EC50 at PKA-RIα holoenzyme worked out at 1590 nM; on RIIβ-S112A holoenzyme, 2270 nM.

Consider `O=P1(S)OCC2OC(n3cnc4cc(Cl)c(Cl)cc43)C(O)C2O1` (stereo not shown) [Sp-5,6-DCl BIMPS], for which the half-maximal effective concentration (EC50) worked out at 344 nM at PKA-RIα holoenzyme and 83 nM on RIIβ-S112A holoenzyme.

In the case of `Nc1ncnc2c1nc(Br)n2[C@@H]1O[C@@H]2COP(O)(=S)O[C@H]2[C@H]1O` (stereo partly shown) [Sp-8-B cAMP], the EC50 was determined as 1360 nM on PKA-RIα holoenzyme and 435 nM at RIIβ-S112A holoenzyme.

`Nc1ncnc2c1nc(Sc1ccc(Cl)cc1)n2[C@@H]1O[C@@H]2CO[P@](=O)(S)O[C@H]2[C@H]1O` [Sp-8-CPT cAMP]: the EC50 on PKA-RIα holoenzyme worked out at 342 nM; on RIIβ-S112A holoenzyme, 96 nM.

Regarding `Nc1ncnc2c1nc(N1CCCCC1)n2[C@@H]1O[C@@H]2COP(O)(=S)O[C@@H]2C1O` (stereo partly shown) [Sp-8-PIP cAMP], the EC50 worked out at 5050 nM on PKA-RIα holoenzyme and 2960 nM on RIIβ-S112A holoenzyme.

As for `Nc1nc2c(ncn2[C@@H]2O[C@@H]3COP(=O)(O)O[C@H]3[C@H]2O)c(=O)[nH]1` [cGMP], the EC50 on PKA-RIα holoenzyme worked out at 15000 nM; at RIIβ-S112A holoenzyme, 5080 nM.
